This note sets out measurements from patent US8158621B2, “Methods of treating or preventing autoimmune diseases with 2,4-pyrimidinediamine compounds” (Rigel Pharmaceuticals, Inc., priority 2002, dated 2012).

The test system of one assay is Jurkat cells. Nature of the assay: Jurkat toxicity, Cell Titer Glo assay. In kind it is cell-based, human. The protocol:
Seed 50 μl cells (1×10^6/ml) into each well containing 50 μl compound. […] Shake plates for 1 minute to mix cells and compound. Incubate plates at 37° C. […] Next day, harvest 50 μl cells from each well, add to 50 μl Cell Titer Glo reagent ([…]). Shake plates for 1 minute. Read on luminometer.

Assay [1] deals with cultured human mast cells (CHMC). Nature of the assay: CHMC high cell density IgE activation: histamine. Type of assay: cell-based. How it is done:
(§1) After sensitizing, cells are counted, pelleted (1000 rpm, 5-10 minutes), and resuspended at 1-2 ×10^6 cells/ml in MT buffer. Add 100 ul of cell suspension to each well and 100 ul of compound dilutions. The final vehicle concentration is 0.5% DMSO. Incubate at 37° C. (5% CO2) for 1 hour. After 1 hour of compound treatment, stimulate cells with 6× anti-IgE. Mix wells with the cells and allow plates to incubate at 37° C. (5% CO2) for one hour. After 1 hour incubation, pellet cells (10 minutes, 1000 RPM) and collect 200 ul per well of the supernatant, being careful not to disturb pellet. Place the supernatant plate on ice. During the 7-hour step (see next) perform tryptase assay on supernatant that had been diluted 1:500. Resuspend cell pellet in 240 ul of CM media containing 0.5% DMSO and corresponding concentration of compound. Incubate CHMC cells for 7 hours at 37° C. (5% CO2). After incubation, pellet cells (1000 RPM, 10 minutes) and collect 225 ul per well and place in −80° C. until ready to perform ELISAS. ELISAS are performed on appropriately diluted samples (determined empirically for each donor cell population so that the sample measurement falls within the standard curve) following the supplier's instructions.

Assay [2] has the same test system. As to the kind of experiment: CHMC high cell density IgE activation: TNFalpha. To be noted: read-out: CHMC high density TNF-alpha. In kind it is cell-based. The protocol: as §1
Assay [3] shares this test system. Nature of the assay: CHMC low cell density ionomycin activation: tryptase assay. Type of assay: cell-based. To be noted: Low Density CHMC, ionomycin activation, tryptase release; read-out: CHMC Ionomycin Tryptase IC50.
Assay [4] shares this test system. Nature of the assay: CHMC high cell density IgE activation: hexos. In kind it is cell-based. The protocol: as §1
Add 50 uL of BMMC cell supernatant (see above) to the hexoseaminidase substrate, place at 37° C. for 30 minutes and read the plate at 5, 10, 15, and 30 minutes on a spectrophotometer.

The test system is the same in assay [5]. Nature of the assay: CHMC low cell density IgE activation: LTC4 assay. In kind it is cell-based. The following applies: anti-IgE activation, LTC4 release. The protocol:
Pellet CHMC cells (980 rpm, 10 min) and resuspend in pre-warmed MT. Add 65 ul of cells to each 96-well plate. Depending on the degranulation activity for each particular CHMC donor, load 1000-1500 cells/well. Mix four times followed by a 1 hr incubation at 37° C. […] Stimulate cells by adding 25 ul of 6× anti-IgE solution to the appropriate plates. Add 25 ul MT to un-stimulated control wells. Mix twice following addition of the anti-IgE. Incubate at 37° C. for 30 minutes. […] Spin plates at 1000 rpm for 10 min to pellet cells. Transfer 25 ul of supernatant to a 96-well black bottom plate and add 100 ul of freshly diluted tryptase substrate solution to each well. Incubate plates at room temperature for 30 min.
Leukotriene C4 (LTC4) is also quantified using an ELISA kit on appropriately diluted supernatant samples (determined empirically for each donor cell population so that the sample measurement falls within the standard curve) following the supplier's instructions.

Assay [6] relates to Human Jurkat T-cells (clone N). Nature of the assay: Jurkat T-cell activation (anti-TCR, CD69 upregulation). Type of assay: cell-based. An outline of the steps:
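Jurkat cells in RPMI + 5% FBS preincubated with compound 1 h at 37 °C, then stimulated with anti-TCR C305 at 500 ng/ml for 20 h. CD69 surface expression stained with anti-CD69-APC and read by flow cytometry; IC50 versus solvent-only control.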

The subject of assay [7] is cultured human mast cells (CHMC). As to the kind of experiment: CHMC low cell density IgE activation: tryptase assay. In kind it is cell-based. To be noted: Low Density CHMC, anti-IgE activation, tryptase release; read-out: CHMC anti-IgE Tryptase IC50. An outline of the steps: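 Cultured human mast cells (1000-1500 cells/well, donor-dependent) equilibrated 1 hr at 37° C, then stimulated with anti-IgE for 30 min at 37° C. Tryptase released into the supernatant is measured with a fluorogenic tryptase substrate after 30 min at room temperature.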

Assay [8] has the same test system. As to the kind of experiment: CHMC high cell density IgE activation: LTC4. Type of assay: cell-based. The protocol: as §1
For assay [9] the test system is unchanged. Nature of the assay: CHMC high cell density IgE activation: tryptase. Type of assay: cell-based. The protocol: as §1

For the compound `CNC(=O)c1cc2cc(Nc3ncc(F)c(Nc4cccc(O)c4)n3)ccc2o1` [Compound R926493], the IC50 is more than 4.33 µM with Jurkat cells; 1320 nM in [1]; more than 2000 nM in assay [2]; 9.18 µM in assay [3]; 889 nM in assay [4]; 78 nM in [5]. Moreover, the IC50 in assay [6] is 3.52 µM; in assay [7], 250 nM; in assay [8], 474 nM; in assay [9] it was 1090 nM.
